BigSolDB 2.1

Oc1ccc(Cl)c2cccnc12
solubility (mole fraction)
Conditions | 278.15 K | 283.15 K | 288.15 K | 293.15 K | 298.15 K | 303.15 K | 308.15 K | 313.15 K | 318.15 K | 323.15 K
in 1,4-dioxane | – | – | 0.0556 | 0.064 | 0.0751 | 0.0875 | 0.102 | 0.119 | 0.14 | 0.161
in 2-ethoxyethanol | 0.0161 | 0.0194 | 0.0249 | 0.0284 | 0.0333 | 0.0398 | 0.0466 | 0.055 | 0.0646 | 0.0768
in ethanol | 0.00253 | 0.00304 | 0.00376 | 0.00468 | 0.00564 | 0.00694 | 0.00839 | 0.0101 | 0.0121 | 0.0145
in n-propyl acetate | 0.015 | 0.0178 | 0.0213 | 0.0251 | 0.0297 | 0.0355 | 0.0416 | 0.0495 | 0.0587 | 0.0696
